The NIST ThermoML archive (doi:10.1021/je060179e)

Assay: xn = mol fraction of the nth substance listed
Conditions: for mass density: 101 kPa, Liquid

CCCCO [butan-1-ol] + CCCCCCC
Conditions	mass density [kg/m3]	surface tension liquid-gas [mN/m]
288.15 K, x2 = 0.0498	–	24.31
288.15 K, x2 = 0.051	803.35	–
288.15 K, x2 = 0.0998	794.33	–
288.15 K, x2 = 0.1007	–	23.81
288.15 K, x2 = 0.2005	–	22.99
288.15 K, x2 = 0.2067	776.12	–
288.15 K, x2 = 0.3043	–	22.37
288.15 K, x2 = 0.3087	760.61	–
288.15 K, x2 = 0.4058	–	21.88
288.15 K, x2 = 0.4059	747.14	–
288.15 K, x2 = 0.5052	734.63	–
288.15 K, x2 = 0.5054	–	21.56
288.15 K, x2 = 0.5986	724.01	–
288.15 K, x2 = 0.599	–	21.38
288.15 K, x2 = 0.7072	–	21.17
288.15 K, x2 = 0.7259	710.89	–
288.15 K, x2 = 0.8008	–	21.03
288.15 K, x2 = 0.8066	703.39	–
288.15 K, x2 = 0.8982	–	20.94
288.15 K, x2 = 0.908	694.8	–
288.15 K, x2 = 0.9523	691.35	–
288.15 K, x2 = 0.9532	–	20.87
293.15 K, x2 = 0.0503	–	23.76
293.15 K, x2 = 0.051	799.52	–
293.15 K, x2 = 0.0998	790.46	–
293.15 K, x2 = 0.1008	–	23.26
293.15 K, x2 = 0.201	–	22.44
293.15 K, x2 = 0.2067	772.16	–
293.15 K, x2 = 0.2986	–	21.85
293.15 K, x2 = 0.3087	756.57	–
293.15 K, x2 = 0.4002	–	21.37
293.15 K, x2 = 0.4059	743	–
293.15 K, x2 = 0.5009	–	21.01
293.15 K, x2 = 0.5052	730.46	–
293.15 K, x2 = 0.5986	719.8	–
293.15 K, x2 = 0.5998	–	20.79
293.15 K, x2 = 0.7034	–	20.62
293.15 K, x2 = 0.7259	706.65	–
293.15 K, x2 = 0.7971	–	20.51
293.15 K, x2 = 0.8066	699.15	–
293.15 K, x2 = 0.902	–	20.37
293.15 K, x2 = 0.908	690.55	–
293.15 K, x2 = 0.9511	–	20.33
293.15 K, x2 = 0.9523	687.11	–
298.15 K, x2 = 0.051	795.66	–
298.15 K, x2 = 0.056	–	23.17
298.15 K, x2 = 0.0937	–	22.75
298.15 K, x2 = 0.0998	786.55	–
298.15 K, x2 = 0.2067	768.15	–
298.15 K, x2 = 0.2085	–	21.94
298.15 K, x2 = 0.302	–	21.35
298.15 K, x2 = 0.3087	752.48	–
298.15 K, x2 = 0.3975	–	20.86
298.15 K, x2 = 0.4059	738.85	–
298.15 K, x2 = 0.5052	726.25	–
298.15 K, x2 = 0.5054	–	20.44
298.15 K, x2 = 0.5986	715.56	–
298.15 K, x2 = 0.6086	–	20.17
298.15 K, x2 = 0.7259	702.38	–
298.15 K, x2 = 0.806	–	19.99
298.15 K, x2 = 0.8066	694.86	–
298.15 K, x2 = 0.908	686.27	–
298.15 K, x2 = 0.9082	–	19.85
298.15 K, x2 = 0.9502	–	19.81
298.15 K, x2 = 0.9523	682.83	–
303.15 K, x2 = 0.0491	–	22.62
303.15 K, x2 = 0.051	791.77	–
303.15 K, x2 = 0.0997	–	22.16
303.15 K, x2 = 0.0998	782.61	–
303.15 K, x2 = 0.2052	–	21.41
303.15 K, x2 = 0.2067	764.11	–
303.15 K, x2 = 0.3051	–	20.81
303.15 K, x2 = 0.3087	748.35	–
303.15 K, x2 = 0.4003	–	20.3
303.15 K, x2 = 0.4059	734.65	–
303.15 K, x2 = 0.504	–	19.92
303.15 K, x2 = 0.5052	722	–
303.15 K, x2 = 0.5966	–	19.72
303.15 K, x2 = 0.5986	711.28	–
303.15 K, x2 = 0.7052	–	19.48
303.15 K, x2 = 0.7259	698.07	–
303.15 K, x2 = 0.8014	–	19.39
303.15 K, x2 = 0.8066	690.54	–
303.15 K, x2 = 0.9024	–	19.3
303.15 K, x2 = 0.908	681.95	–
303.15 K, x2 = 0.9507	–	19.27
303.15 K, x2 = 0.9523	678.52	–
308.15 K, x2 = 0.0507	–	22.35
308.15 K, x2 = 0.051	787.85	–
308.15 K, x2 = 0.0998	778.63	–
308.15 K, x2 = 0.1017	–	21.89
308.15 K, x2 = 0.2054	–	20.98
308.15 K, x2 = 0.2067	760.04	–
308.15 K, x2 = 0.3025	–	20.33
308.15 K, x2 = 0.3087	744.18	–
308.15 K, x2 = 0.4017	–	19.87
308.15 K, x2 = 0.4059	730.42	–
308.15 K, x2 = 0.5052	717.71	19.53
308.15 K, x2 = 0.5986	706.95	–
308.15 K, x2 = 0.6007	–	19.28
308.15 K, x2 = 0.7259	693.71	–
308.15 K, x2 = 0.7306	–	19.2
308.15 K, x2 = 0.8066	686.18	–
308.15 K, x2 = 0.8079	–	19.1
308.15 K, x2 = 0.908	677.61	–
308.15 K, x2 = 0.9086	–	18.99
308.15 K, x2 = 0.9523	674.17	–
308.15 K, x2 = 0.9532	–	18.9

CCCCCCO [hexan-1-ol] + CCCCCCC
Conditions	mass density [kg/m3]	surface tension liquid-gas [mN/m]
288.15 K, x2 = 0.05	814.76	–
288.15 K, x2 = 0.0507	–	25.6
288.15 K, x2 = 0.0976	807.66	–
288.15 K, x2 = 0.1018	–	25.01
288.15 K, x2 = 0.2001	–	24.02
288.15 K, x2 = 0.3087	–	23.22
288.15 K, x2 = 0.3197	775.17	–
288.15 K, x2 = 0.3943	764.62	–
288.15 K, x2 = 0.3949	–	22.55
288.15 K, x2 = 0.5021	–	22.16
288.15 K, x2 = 0.5088	748.93	–
288.15 K, x2 = 0.6053	–	21.8
288.15 K, x2 = 0.6171	734.53	–
288.15 K, x2 = 0.7045	723.24	–
288.15 K, x2 = 0.7097	–	21.46
288.15 K, x2 = 0.8055	–	21.2
288.15 K, x2 = 0.808	710.42	–
288.15 K, x2 = 0.9066	–	21.05
288.15 K, x2 = 0.9072	698.54	–
288.15 K, x2 = 0.9517	–	20.94
293.15 K, x2 = 0.0494	–	25.01
293.15 K, x2 = 0.05	811.17	–
293.15 K, x2 = 0.0976	804.03	–
293.15 K, x2 = 0.1036	–	24.45
293.15 K, x2 = 0.201	–	23.47
293.15 K, x2 = 0.3037	–	22.65
293.15 K, x2 = 0.3197	771.33	–
293.15 K, x2 = 0.3943	760.72	–
293.15 K, x2 = 0.4422	–	21.75
293.15 K, x2 = 0.5056	–	21.54
293.15 K, x2 = 0.5088	744.95	–
293.15 K, x2 = 0.5979	–	21.26
293.15 K, x2 = 0.6171	730.47	–
293.15 K, x2 = 0.6999	–	20.8
293.15 K, x2 = 0.7045	719.14	–
293.15 K, x2 = 0.808	706.27	–
293.15 K, x2 = 0.8091	–	20.54
293.15 K, x2 = 0.9061	–	20.43
293.15 K, x2 = 0.9072	694.33	–
293.15 K, x2 = 0.951	–	20.29
298.15 K, x2 = 0.0497	–	24.61
298.15 K, x2 = 0.05	807.56	–
298.15 K, x2 = 0.0976	800.37	–
298.15 K, x2 = 0.0987	–	24.05
298.15 K, x2 = 0.2023	–	22.92
298.15 K, x2 = 0.3096	–	22.09
298.15 K, x2 = 0.3197	767.46	–
298.15 K, x2 = 0.3943	756.8	–
298.15 K, x2 = 0.4078	–	21.45
298.15 K, x2 = 0.5054	–	21.04
298.15 K, x2 = 0.5088	740.94	–
298.15 K, x2 = 0.6099	–	20.58
298.15 K, x2 = 0.6171	726.39	–
298.15 K, x2 = 0.7045	715.01	–
298.15 K, x2 = 0.7075	–	20.28
298.15 K, x2 = 0.808	702.07	–
298.15 K, x2 = 0.8127	–	20.04
298.15 K, x2 = 0.905	–	19.93
298.15 K, x2 = 0.9072	690.09	–
298.15 K, x2 = 0.9515	–	19.74
303.15 K, x2 = 0.0488	–	24.1
303.15 K, x2 = 0.05	803.92	–
303.15 K, x2 = 0.0976	796.68	–
303.15 K, x2 = 0.1027	–	23.55
303.15 K, x2 = 0.1865	–	22.62
303.15 K, x2 = 0.31	–	21.59
303.15 K, x2 = 0.3197	763.56	–
303.15 K, x2 = 0.3943	752.84	–
303.15 K, x2 = 0.4122	–	20.97
303.15 K, x2 = 0.5086	–	20.49
303.15 K, x2 = 0.5088	736.9	–
303.15 K, x2 = 0.6147	–	20
303.15 K, x2 = 0.6171	722.28	–
303.15 K, x2 = 0.7045	710.84	–
303.15 K, x2 = 0.7097	–	19.78
303.15 K, x2 = 0.808	697.85	–
303.15 K, x2 = 0.8089	–	19.54
303.15 K, x2 = 0.9068	–	19.26
303.15 K, x2 = 0.9072	685.82	–
303.15 K, x2 = 0.9519	–	19.13
308.15 K, x2 = 0.0428	–	23.64
308.15 K, x2 = 0.05	800.26	–
308.15 K, x2 = 0.0976	792.98	–
308.15 K, x2 = 0.1025	–	23.03
308.15 K, x2 = 0.1986	–	22
308.15 K, x2 = 0.3055	–	21.1
308.15 K, x2 = 0.3197	759.64	–
308.15 K, x2 = 0.3943	748.86	–
308.15 K, x2 = 0.403	–	20.52
308.15 K, x2 = 0.498	–	20.11
308.15 K, x2 = 0.5088	732.83	–
308.15 K, x2 = 0.6165	–	19.57
308.15 K, x2 = 0.6171	718.13	–
308.15 K, x2 = 0.7042	–	19.35
308.15 K, x2 = 0.7045	706.64	–
308.15 K, x2 = 0.808	693.59	–
308.15 K, x2 = 0.8118	–	19.06
308.15 K, x2 = 0.9054	–	18.89
308.15 K, x2 = 0.9072	681.51	–
308.15 K, x2 = 0.9503	–	18.77
